{"source": "patent US9120744B2", "about": "“Plasminogen activator inhibitor-1 inhibitors and methods of use thereof to modulate lipid metabolism” (THE REGENTS OF THE UNIVERSITY OF MICHIGAN, priority 2007, dated 2015)", "key": {"PAI-1 [1]": {"tested_on": "PAI-1", "assay": "PAI-1 activity assay in ex vivo plasma with and without vitronectin", "assay_type": "biochemical", "settings": "plasma of PAI-1 null or PAI-1/vitronectin null mice, 20 nM PAI-1"}, "active murine PAI-1": {"target": "active murine PAI-1 (Mus musculus (Mouse), UniProt P22777)", "sequence (P22777 23-402)": "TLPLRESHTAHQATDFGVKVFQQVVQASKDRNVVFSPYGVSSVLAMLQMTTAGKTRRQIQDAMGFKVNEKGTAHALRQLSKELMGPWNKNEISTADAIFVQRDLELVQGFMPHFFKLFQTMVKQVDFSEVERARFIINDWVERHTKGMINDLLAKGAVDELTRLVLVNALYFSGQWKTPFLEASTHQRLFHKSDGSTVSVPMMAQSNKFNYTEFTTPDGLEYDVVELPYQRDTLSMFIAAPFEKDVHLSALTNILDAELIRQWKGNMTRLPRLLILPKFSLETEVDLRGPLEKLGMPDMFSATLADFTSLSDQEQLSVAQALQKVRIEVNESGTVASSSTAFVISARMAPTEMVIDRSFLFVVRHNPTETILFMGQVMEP", "assay": "In vivo efficacy in transgenic mice that overexpress PAI-1, active PAI-1 in plasma", "settings": "3, 10, 30 mg/kg into the IVC, 1 hour"}, "[2]": {"target": "anti-thrombin III (ATIII) (Homo sapiens (Human), UniProt P01008)", "sequence (P01008 33-464, species assumed)": "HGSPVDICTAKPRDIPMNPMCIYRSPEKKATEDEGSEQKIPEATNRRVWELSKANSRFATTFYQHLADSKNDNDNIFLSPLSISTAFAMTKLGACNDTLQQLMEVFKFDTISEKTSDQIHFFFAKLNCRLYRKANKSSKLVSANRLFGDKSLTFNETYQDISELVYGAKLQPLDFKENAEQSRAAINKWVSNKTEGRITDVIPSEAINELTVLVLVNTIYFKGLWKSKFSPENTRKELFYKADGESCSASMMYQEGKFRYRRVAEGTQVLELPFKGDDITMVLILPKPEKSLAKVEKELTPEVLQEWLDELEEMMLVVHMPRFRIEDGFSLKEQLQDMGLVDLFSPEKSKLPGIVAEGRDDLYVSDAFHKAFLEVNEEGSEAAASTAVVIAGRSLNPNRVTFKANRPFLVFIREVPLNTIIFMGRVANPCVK", "assay": "Specificity assay on anti-thrombin III (thrombin activity)", "assay_type": "biochemical", "settings": "pH 7.5 or pH 8.5, with heparin"}, "[3]": {"target": "T1, recombinant active human PAI-1 (Homo sapiens (Human), UniProt P05121)", "T1 sequence (P05121 24-402)": "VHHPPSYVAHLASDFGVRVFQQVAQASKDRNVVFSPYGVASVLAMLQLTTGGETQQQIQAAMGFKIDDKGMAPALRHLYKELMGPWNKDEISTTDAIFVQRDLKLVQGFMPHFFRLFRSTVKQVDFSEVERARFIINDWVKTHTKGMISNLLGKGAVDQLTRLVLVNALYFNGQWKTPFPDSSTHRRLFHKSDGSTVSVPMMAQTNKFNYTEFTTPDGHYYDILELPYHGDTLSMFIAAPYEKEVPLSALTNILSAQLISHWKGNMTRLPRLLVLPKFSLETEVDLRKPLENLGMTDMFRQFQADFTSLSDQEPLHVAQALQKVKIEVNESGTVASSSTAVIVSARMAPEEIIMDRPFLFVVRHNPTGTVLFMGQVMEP", "assay": "pH dependence of PAI-1 inhibition, fluorogenic uPA (or tPA) assay", "assay_type": "biochemical"}, "[4]": {"target": "T1, recombinant active human PAI-1", "assay": "Fluorometric IC50 plate assay (PAI-1 inhibition of uPA, Z-Gly-Gly-Arg-AMC)", "assay_type": "biochemical", "settings": "in vitro, PAI-1 1 nM, uPA 2.5 nM, pH 7.8, 10% DMSO; ND = not detected, e.g. no inhibition"}, "PAI-1/vitronectin": {"target": "PAI-1/vitronectin (Homo sapiens (Human), UniProt P05121)", "sequence (P05121 24-402)": "as above", "assay": "Inhibition of PAI-1 in the presence of vitronectin, fluorogenic uPA assay", "assay_type": "biochemical"}, "PAI-1 [5]": {"target": "T2, PAI-1 (Homo sapiens (Human), UniProt P05121)", "assay": "Surface plasmon resonance, loss of PAI-1 binding to immobilized anhydrotrypsin", "settings": "PAI-1 2 nM preincubated with compound, SPR; read-out: Apparent KD (nM) ± SEM"}, "PAI-1 null mice": {"tested_on": "PAI-1 null mice", "assay": "Oral PAI-039 in PAI-1 null mice, lipid analysis", "assay_type": "in vivo, mouse", "settings": "two weeks in chow"}, "PAI-1 [6]": {"target": "T2, PAI-1", "settings": "cited from earlier work"}, "C57BL/6J and 129 mice": {"tested_on": "C57BL/6J and 129 mice", "assay": "Oral PAI-039 in chow for two weeks, plasma PAI-1 activity and lipid profiles", "assay_type": "in vivo, mouse"}}}
{"smiles": "O=C(OC[C@H]1OC(OC(=O)c2cc(O)c(O)c(O)c2)[C@H](OC(=O)c2cc(O)c(O)c(O)c2)[C@@H](OC(=O)c2cc(O)c(O)c(O)c2)[C@H]1OC(=O)c1cc(O)c(O)c(O)c1)c1cc(O)c(O)c(O)c1", "note": "(stereo partly drawn) [CDE-066]", "values": [{"measurement": "PAI-1 inhibition in plasma with or without vitronectin (in words)", "setting": "PAI-1 [1]", "result": "inhibited PAI-1 equally well in plasma with or with out physiologic vitronectin"}, {"measurement": "active PAI-1 in plasma after treatment (in words)", "setting": "active murine PAI-1", "result": "dose-dependent decrease in active PAI-1"}]}
{"smiles": "O=C(OCCOC(=O)c1cc(O)c(O)c(O)c1)c1cc(O)c(O)c(O)c1", "note": "[CDE-008]", "values": [{"measurement": "effect on ATIII activity (in words)", "setting": "[2]", "result": "no effect"}, {"measurement": "IC50", "setting": "[3]; pH 6.5", "result": 325, "unit": "µM"}, {"measurement": "effect of pH on PAI-1 inhibition (in words)", "setting": "[3]; pH 6.5 to 8.5", "result": "more effective inhibitor at pH 8.5 than at pH 7.5"}, {"measurement": "IC50", "setting": "[3]; pH 7.5", "result": 0.288, "unit": "µM"}, {"measurement": "IC50", "setting": "[3]; pH 8.5", "result": 0.064, "unit": "µM"}, {"measurement": "IC50", "setting": "[4]", "result": 0.37, "unit": "µM"}, {"measurement": "inhibition of PAI-1 in the presence of vitronectin (in words)", "setting": "PAI-1/vitronectin; 200 nM vitronectin, pH 7.5 and pH 8.5", "result": "inhibits PAI-1 in the presence of vitronectin at both pH 7.5 and pH 8.5"}, {"measurement": "change of IC50 in the presence of vitronectin", "setting": "PAI-1/vitronectin; at each pH (7.5 and 8.5)", "result": 1, "unit": "log value"}, {"measurement": "Kd", "setting": "PAI-1 [5]", "result": "23 ± 1", "unit": "nM"}]}
{"smiles": "O=C(O)C(=O)c1cn(Cc2ccccc2)c2ccc(-c3ccc(OC(F)(F)F)cc3)cc12", "note": "[PAI-039, tiplaxtinin]", "values": [{"measurement": "effect on metabolism (lipid profile) in PAI-1 null mice (in words)", "setting": "PAI-1 null mice", "result": "no significant effect"}, {"measurement": "inhibition of vitronectin bound PAI-1 (in words)", "setting": "PAI-1 [6]", "result": "does not inhibit vitronectin bound PAI-1"}, {"measurement": "PAI-1 inhibition in plasma with or without vitronectin (in words)", "setting": "PAI-1 [1]", "result": "only inhibitory in plasma that lacks vitronectin"}, {"measurement": "HDL cholesterol increase", "setting": "C57BL/6J and 129 mice; 129", "result": 45, "unit": "%"}, {"measurement": "VLDL decrease", "setting": "C57BL/6J and 129 mice; 129", "result": 35, "unit": "%"}, {"measurement": "HDL cholesterol increase", "setting": "C57BL/6J and 129 mice; C57BL/6J", "result": 11, "unit": "%"}, {"measurement": "VLDL decrease", "setting": "C57BL/6J and 129 mice; C57BL/6J", "result": 49, "unit": "%"}, {"measurement": "plasma level of active PAI-1", "setting": "C57BL/6J and 129 mice; C57BL/6J mice, 5 mg PAI-039/gram of chow, two weeks", "result": "0.37 ± 0.08", "unit": "ng/mL"}, {"measurement": "VLDL average decrease", "setting": "C57BL/6J and 129 mice; average of C57BL/6J and 129", "result": 42, "unit": "%"}, {"measurement": "HDL higher, average increase for C57BL/6J and 129 mice", "setting": "C57BL/6J and 129 mice; average of both strains", "result": "approximately 28%"}]}
